Measured values as given in patent US20260356819A1, “OXOISOINDOLINYL-SUBSTITUTED […] DERIVATIVE AND USE THEREOF” (GLUETACS THERAPEUTICS (SHANGHAI) CO., LTD., priority 2023, published 2026).

Columns and labels:
Format in all cases: cell-based
Settings in all cases: compounds at 50 nM and 500 nM
[1] = biological target: T1, CK1α (Homo sapiens, UniProt P48729+Q96SW2); assay: Western blot degradation of CK1α in hPBMCs (24 h)
T1 construct: The supernatant was aspirated as the extracted total cell protein; endogenous in cells; host or cells: human peripheral blood mononuclear cells (hPBMCs)
Outline: (§1)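 Immunoblot densitometry quantifies target loss in hPBMCs after a 24 h compound exposure (50 nM, 500 nM). Percent remaining is normalised band intensity; DC50 is the concentration giving half the DMSO-control band grayscale.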

[2] = biological target: T2, IKZF2 (Homo sapiens, UniProt Q96SW2+Q9UKS7); assay: Western blot degradation of IKZF2 in hPBMCs (24 h)
T2 construct: The supernatant was aspirated as the extracted total cell protein; endogenous in cells; host or cells: human peripheral blood mononuclear cells (hPBMCs)
Outline: as §1

[3] = biological target: T3, GSPT1 (Homo sapiens, UniProt P15170+Q96SW2); assay: Western blot degradation of GSPT1 in hPBMCs (24 h)
T3 construct: The supernatant was aspirated as the extracted total cell protein; endogenous in cells; host or cells: human peripheral blood mononuclear cells (hPBMCs)
Outline: as §1

[4] = biological target: T4, WEE1 (Homo sapiens, UniProt P30291+Q96SW2); assay: Western blot degradation of WEE1 in hPBMCs (24 h)
T4 construct: The supernatant was aspirated as the extracted total cell protein; endogenous in cells; host or cells: human peripheral blood mononuclear cells (hPBMCs)
Outline: as §1

[5] = biological target: T5, IKZF3 (Homo sapiens, UniProt Q96SW2+Q9UKT9); assay: Western blot degradation of IKZF3 in hPBMCs (24 h)
T5 construct: The supernatant was aspirated as the extracted total cell protein; endogenous in cells; host or cells: human peripheral blood mononuclear cells (hPBMCs)
Outline: as §1

[6] = biological target: T6, IKZF1 (Homo sapiens, UniProt Q13422+Q96SW2); assay: Western blot degradation of IKZF1 in hPBMCs (24 h)
T6 construct: The supernatant was aspirated as the extracted total cell protein; endogenous in cells; host or cells: human peripheral blood mononuclear cells (hPBMCs)
Outline: as §1

T3 sequence (P15170 whole entry): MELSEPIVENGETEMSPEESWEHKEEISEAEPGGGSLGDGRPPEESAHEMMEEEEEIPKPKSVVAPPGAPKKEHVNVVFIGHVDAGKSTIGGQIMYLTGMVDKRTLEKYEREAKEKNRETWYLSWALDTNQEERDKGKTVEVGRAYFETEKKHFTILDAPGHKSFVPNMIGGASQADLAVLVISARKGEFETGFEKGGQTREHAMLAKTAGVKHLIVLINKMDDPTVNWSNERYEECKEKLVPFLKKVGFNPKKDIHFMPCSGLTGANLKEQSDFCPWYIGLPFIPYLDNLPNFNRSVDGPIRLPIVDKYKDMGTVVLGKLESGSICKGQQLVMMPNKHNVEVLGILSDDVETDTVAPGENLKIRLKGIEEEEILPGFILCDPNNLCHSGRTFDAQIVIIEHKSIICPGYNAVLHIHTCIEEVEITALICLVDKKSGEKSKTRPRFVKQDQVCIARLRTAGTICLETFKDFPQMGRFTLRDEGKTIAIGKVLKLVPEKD
T3 sequence (Q96SW2 whole entry): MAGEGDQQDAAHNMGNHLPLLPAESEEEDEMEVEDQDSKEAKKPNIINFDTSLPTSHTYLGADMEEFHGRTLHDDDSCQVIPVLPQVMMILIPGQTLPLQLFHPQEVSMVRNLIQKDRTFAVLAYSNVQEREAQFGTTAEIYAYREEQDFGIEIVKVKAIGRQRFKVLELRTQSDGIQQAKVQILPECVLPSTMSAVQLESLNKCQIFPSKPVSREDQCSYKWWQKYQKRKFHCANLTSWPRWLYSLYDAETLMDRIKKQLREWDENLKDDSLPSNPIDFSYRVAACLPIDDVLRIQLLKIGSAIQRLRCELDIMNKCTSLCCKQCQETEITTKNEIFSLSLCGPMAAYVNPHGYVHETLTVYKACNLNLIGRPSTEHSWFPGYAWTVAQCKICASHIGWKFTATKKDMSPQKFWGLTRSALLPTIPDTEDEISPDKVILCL
T3 sequence (Q16531 whole entry partner): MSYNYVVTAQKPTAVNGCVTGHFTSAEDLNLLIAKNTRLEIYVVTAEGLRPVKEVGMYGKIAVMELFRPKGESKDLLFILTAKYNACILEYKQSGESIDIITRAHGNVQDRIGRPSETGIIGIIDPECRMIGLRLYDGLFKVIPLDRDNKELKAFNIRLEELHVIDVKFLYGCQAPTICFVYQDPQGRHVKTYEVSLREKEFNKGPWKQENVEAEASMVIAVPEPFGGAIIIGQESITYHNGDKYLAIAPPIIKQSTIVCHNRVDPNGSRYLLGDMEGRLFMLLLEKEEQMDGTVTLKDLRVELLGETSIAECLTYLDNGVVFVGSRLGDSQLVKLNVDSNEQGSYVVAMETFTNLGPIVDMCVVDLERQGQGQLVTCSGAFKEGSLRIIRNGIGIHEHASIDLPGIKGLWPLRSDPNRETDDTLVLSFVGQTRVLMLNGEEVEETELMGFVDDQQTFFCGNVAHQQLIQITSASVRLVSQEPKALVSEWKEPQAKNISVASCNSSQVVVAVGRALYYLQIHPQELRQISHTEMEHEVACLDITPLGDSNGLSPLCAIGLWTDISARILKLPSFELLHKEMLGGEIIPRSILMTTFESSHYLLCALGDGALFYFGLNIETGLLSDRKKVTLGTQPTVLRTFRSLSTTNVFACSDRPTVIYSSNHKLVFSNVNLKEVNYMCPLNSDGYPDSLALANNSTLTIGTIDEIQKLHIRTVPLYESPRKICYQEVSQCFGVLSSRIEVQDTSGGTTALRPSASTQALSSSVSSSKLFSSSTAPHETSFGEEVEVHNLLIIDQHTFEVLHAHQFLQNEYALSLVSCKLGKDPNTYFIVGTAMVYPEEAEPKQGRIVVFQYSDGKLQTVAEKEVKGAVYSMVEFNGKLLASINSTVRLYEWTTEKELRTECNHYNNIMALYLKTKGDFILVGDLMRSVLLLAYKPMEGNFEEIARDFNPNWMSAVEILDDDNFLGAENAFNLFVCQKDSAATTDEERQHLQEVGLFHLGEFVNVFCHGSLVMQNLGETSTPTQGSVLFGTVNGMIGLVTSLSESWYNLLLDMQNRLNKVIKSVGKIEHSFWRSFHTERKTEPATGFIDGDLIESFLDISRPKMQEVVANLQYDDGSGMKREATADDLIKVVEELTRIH
T5 sequence (Q9UKT9 whole entry): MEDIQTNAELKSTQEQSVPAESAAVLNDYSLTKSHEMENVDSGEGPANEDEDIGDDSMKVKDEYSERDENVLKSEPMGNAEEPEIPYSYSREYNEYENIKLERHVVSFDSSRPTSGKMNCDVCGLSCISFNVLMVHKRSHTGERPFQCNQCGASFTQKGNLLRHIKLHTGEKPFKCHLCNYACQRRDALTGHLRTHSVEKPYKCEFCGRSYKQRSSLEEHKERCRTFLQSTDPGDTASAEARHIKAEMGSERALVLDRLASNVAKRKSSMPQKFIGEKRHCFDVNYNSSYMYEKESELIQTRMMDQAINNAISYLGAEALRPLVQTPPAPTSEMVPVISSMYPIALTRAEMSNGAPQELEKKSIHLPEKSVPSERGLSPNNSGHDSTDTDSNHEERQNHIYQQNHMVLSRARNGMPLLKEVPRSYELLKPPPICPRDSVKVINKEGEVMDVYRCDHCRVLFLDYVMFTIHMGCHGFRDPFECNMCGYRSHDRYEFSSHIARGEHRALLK
T5 sequence (Q96SW2 whole entry): as the sequence (Q96SW2 whole entry) above
T5 sequence (Q16531 whole entry partner): as the sequence (Q16531 whole entry partner) above
T6 sequence (Q13422 whole entry): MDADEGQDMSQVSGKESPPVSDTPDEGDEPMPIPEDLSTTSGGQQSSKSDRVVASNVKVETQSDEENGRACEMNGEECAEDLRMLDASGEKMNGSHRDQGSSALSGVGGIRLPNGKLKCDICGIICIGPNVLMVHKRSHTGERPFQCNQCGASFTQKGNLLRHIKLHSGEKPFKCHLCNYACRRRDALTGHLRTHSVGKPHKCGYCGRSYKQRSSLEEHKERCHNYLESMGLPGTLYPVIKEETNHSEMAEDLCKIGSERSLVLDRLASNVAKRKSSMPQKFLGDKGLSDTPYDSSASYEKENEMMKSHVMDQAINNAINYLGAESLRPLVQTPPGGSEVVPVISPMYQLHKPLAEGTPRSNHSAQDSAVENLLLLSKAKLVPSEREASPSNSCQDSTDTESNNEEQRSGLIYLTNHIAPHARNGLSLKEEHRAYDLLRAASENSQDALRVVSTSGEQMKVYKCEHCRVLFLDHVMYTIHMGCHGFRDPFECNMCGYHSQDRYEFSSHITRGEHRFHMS
T6 sequence (Q96SW2 whole entry): as the sequence (Q96SW2 whole entry) above
T6 sequence (Q16531 whole entry partner): as the sequence (Q16531 whole entry partner) above
T4 sequence (P30291 whole entry): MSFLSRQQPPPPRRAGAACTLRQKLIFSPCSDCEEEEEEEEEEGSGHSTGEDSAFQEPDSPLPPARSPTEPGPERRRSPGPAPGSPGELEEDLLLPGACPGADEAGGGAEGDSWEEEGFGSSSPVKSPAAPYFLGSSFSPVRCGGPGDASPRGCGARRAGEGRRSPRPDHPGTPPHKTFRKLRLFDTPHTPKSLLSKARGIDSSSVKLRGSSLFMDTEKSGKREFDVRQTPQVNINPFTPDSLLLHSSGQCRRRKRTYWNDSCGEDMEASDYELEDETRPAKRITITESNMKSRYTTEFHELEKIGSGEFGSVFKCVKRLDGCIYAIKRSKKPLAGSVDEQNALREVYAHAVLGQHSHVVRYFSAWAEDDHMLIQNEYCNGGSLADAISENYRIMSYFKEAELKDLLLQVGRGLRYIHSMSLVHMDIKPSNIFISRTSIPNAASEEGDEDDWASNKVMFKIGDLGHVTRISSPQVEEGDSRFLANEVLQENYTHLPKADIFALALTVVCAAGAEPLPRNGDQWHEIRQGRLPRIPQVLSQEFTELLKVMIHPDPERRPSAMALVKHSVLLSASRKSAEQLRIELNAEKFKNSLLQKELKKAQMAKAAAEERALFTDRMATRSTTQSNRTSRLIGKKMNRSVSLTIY
T4 sequence (Q96SW2 whole entry): as the sequence (Q96SW2 whole entry) above
T4 sequence (Q16531 whole entry partner): as the sequence (Q16531 whole entry partner) above
T2 sequence (Q9UKS7 whole entry): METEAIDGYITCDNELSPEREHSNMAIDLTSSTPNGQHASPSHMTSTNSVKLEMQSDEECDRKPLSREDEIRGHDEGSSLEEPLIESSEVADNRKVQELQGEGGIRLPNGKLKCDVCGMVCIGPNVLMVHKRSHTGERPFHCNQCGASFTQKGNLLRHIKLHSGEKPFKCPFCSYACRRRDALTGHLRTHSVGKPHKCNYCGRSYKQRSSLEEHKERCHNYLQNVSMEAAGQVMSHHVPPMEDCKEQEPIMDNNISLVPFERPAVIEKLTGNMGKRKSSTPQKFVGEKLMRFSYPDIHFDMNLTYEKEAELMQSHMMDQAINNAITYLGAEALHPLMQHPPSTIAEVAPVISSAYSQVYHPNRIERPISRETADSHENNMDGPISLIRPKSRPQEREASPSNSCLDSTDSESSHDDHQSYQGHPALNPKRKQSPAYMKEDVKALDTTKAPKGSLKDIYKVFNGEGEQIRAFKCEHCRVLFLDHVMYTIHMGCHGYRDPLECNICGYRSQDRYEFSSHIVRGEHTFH
T2 sequence (Q96SW2 whole entry): as the sequence (Q96SW2 whole entry) above
T2 sequence (Q16531 whole entry partner): as the sequence (Q16531 whole entry partner) above

SMILES	CK1α substrate protein remaining % [1]	IKZF2 substrate protein remaining % [2]	GSPT1 substrate protein remaining % [3]	WEE1 substrate protein remaining % [4]	IKZF3 substrate protein remaining % [5]	IKZF1 substrate protein remaining % [6]
O=C1CCN(N2Cc3cc(CN4CCN(c5c(F)cccc5F)CC4)ccc3C2=O)C(=O)N1 [GT-06780, 1-(5-((4-(2,6-difluorophenyl)piperazin-1-yl)methyl)-1-oxoisoindolin-2-yl)dihydropyrimidine-2,4(1H,3H)-dione]	A (0% ≤ substrate protein remaining % ≤80%)	B (80%< substrate protein remaining % ≤100%)	B (80%< substrate protein remaining % ≤100%)	B (80%< substrate protein remaining % ≤100%)	B (80%< substrate protein remaining % ≤100%)	B (80%< substrate protein remaining % ≤100%)
O=C1CCN(N2C(=O)c3ccc(CN4CCC(c5n[nH]c6cc(F)ccc56)CC4)cc3C2=O)C(=O)N1 [GT-07530, 2-(2,4-dioxotetrahydropyrimidin-1(2H)-yl)-5-((4-(6-fluoro-1H-indazol-3-yl)piperidin-1-yl)methyl)isoindoline-1,3-dione]	A (0% ≤ substrate protein remaining % ≤80%)	B (80%< substrate protein remaining % ≤100%)	A (0% ≤ substrate protein remaining % ≤80%)	A (0% ≤ substrate protein remaining % ≤80%)	B (80%< substrate protein remaining % ≤100%)	B (80%< substrate protein remaining % ≤100%)
O=C1CCN(N2Cc3cc(CN4CC5CCC4CN5C(c4ccccc4)c4ccccc4)ccc3C2=O)C(=O)N1 (stereo not drawn) [GT-06450, 1-(5-((5-benzhydryl-2,5-diazabicyclo[2.2.2]octan-2-yl)methyl)-1-oxoisoindolin-2-yl)dihydropyrimidine-2,4(1H,3H)-dione]	B (80%< substrate protein remaining % ≤100%)	A (0% ≤ substrate protein remaining % ≤80%)	A (0% ≤ substrate protein remaining % ≤80%)	A (0% ≤ substrate protein remaining % ≤80%)	A (0% ≤ substrate protein remaining % ≤80%)	B (80%< substrate protein remaining % ≤100%)
O=C1CCN(N2C(=O)c3ccc(CN4CCC(c5ccc(Br)cc5)CC4)cc3C2=O)C(=O)N1 [GT-06805, 5-((4-(4-bromophenyl)piperidin-1-yl)methyl)-2-(2,4-dioxotetrahydropyrimidin-1(2H)-yl)isoindoline-1,3-dione]	A (0% ≤ substrate protein remaining % ≤80%)	B (80%< substrate protein remaining % ≤100%)	B (80%< substrate protein remaining % ≤100%)	B (80%< substrate protein remaining % ≤100%)	B (80%< substrate protein remaining % ≤100%)	B (80%< substrate protein remaining % ≤100%)
O=C1CCN(N2C(=O)c3ccc(CN4CCN(c5ncnc6scc(-c7ccccc7)c56)CC4)cc3C2=O)C(=O)N1 [GT-08098, 2-(2,4-dioxotetrahydropyrimidin-1(2H)-yl)-5-((4-(5-phenylthieno[2,3-d]pyrimidin-4-yl)piperazin-1-yl)methyl)isoindoline-1,3-dione]	B (80%< substrate protein remaining % ≤100%)	B (80%< substrate protein remaining % ≤100%)	A (0% ≤ substrate protein remaining % ≤80%)	B (80%< substrate protein remaining % ≤100%)	B (80%< substrate protein remaining % ≤100%)	B (80%< substrate protein remaining % ≤100%)
O=C1CCN(N2C(=O)c3ccc(CN4CCC(c5noc6ccccc56)CC4)cc3C2=O)C(=O)N1 [GT-07522, 5-((4-(benzo[d]isoxazol-3-yl)piperidin-1-yl)methyl)-2-(2,4-dioxotetrahydropyrimidin-1(2H)-yl)isoindoline-1,3-dione]	A (0% ≤ substrate protein remaining % ≤80%)	A (0% ≤ substrate protein remaining % ≤80%)	A (0% ≤ substrate protein remaining % ≤80%)	A (0% ≤ substrate protein remaining % ≤80%)	B (80%< substrate protein remaining % ≤100%)	A (0% ≤ substrate protein remaining % ≤80%)
O=C1CCN(N2Cc3cc(CN4CCN(c5nc(Cl)nc6ccsc56)CC4)ccc3C2=O)C(=O)N1 [GT-08444, 1-(5-((4-(2-chlorothieno[3,2-d]pyrimidin-4-yl)piperazin-1-yl)methyl)-1-oxoisoindolin-2-yl)dihydropyrimidine-2,4(1H,3H)-dione]	B (80%< substrate protein remaining % ≤100%)	B (80%< substrate protein remaining % ≤100%)	B (80%< substrate protein remaining % ≤100%)	A (0% ≤ substrate protein remaining % ≤80%)	B (80%< substrate protein remaining % ≤100%)	B (80%< substrate protein remaining % ≤100%)
C[C@@H]1CN(C(c2ccccc2)c2ccccc2)CCN1Cc1ccc2c(c1)CN(N1CCC(=O)NC1=O)C2=O [GT-06448, (R)-1-(5-((4-benzhydryl-2-methylpiperazin-1-yl)methyl)-1-oxoisoindolin-2-yl)dihydropyrimidine-2,4(1H,3H)-dione]	B (80%< substrate protein remaining % ≤100%)	A (0% ≤ substrate protein remaining % ≤80%)	A (0% ≤ substrate protein remaining % ≤80%)	B (80%< substrate protein remaining % ≤100%)	A (0% ≤ substrate protein remaining % ≤80%)	B (80%< substrate protein remaining % ≤100%)
Cc1cccc(N2CCN(Cc3ccc4c(c3)CN(N3CCC(=O)NC3=O)C4=O)CC2)n1 [GT-05125, 1-(5-((4-(6-methylpyridin-2-yl)piperazin-1-yl)methyl)-1-oxoisoindolin-2-yl)dihydropyrimidine-2,4(1H,3H)-dione]	A (0% ≤ substrate protein remaining % ≤80%)	B (80%< substrate protein remaining % ≤100%)	A (0% ≤ substrate protein remaining % ≤80%)	A (0% ≤ substrate protein remaining % ≤80%)	A (0% ≤ substrate protein remaining % ≤80%)	A (0% ≤ substrate protein remaining % ≤80%)
O=C1CCN(N2Cc3cc(CN4CCC(c5ccon5)CC4)ccc3C2=O)C(=O)N1 [GT-07495, 1-(5-((4-(isoxazol-3-yl)piperidin-1-yl)methyl)-1-oxoisoindolin-2-yl)dihydropyrimidine-2,4(1H,3H)-dione]	A (0% ≤ substrate protein remaining % ≤80%)	B (80%< substrate protein remaining % ≤100%)	A (0% ≤ substrate protein remaining % ≤80%)	B (80%< substrate protein remaining % ≤100%)	B (80%< substrate protein remaining % ≤100%)	B (80%< substrate protein remaining % ≤100%)
O=C1CCN(N2Cc3cc(CN4CCC(c5ccc(Br)cc5)CC4)ccc3C2=O)C(=O)N1 [GT-06886, 1-(5-((4-(4-bromophenyl)piperidin-1-yl)methyl)-1-oxoisoindolin-2-yl)dihydropyrimidine-2,4(1H,3H)-dione]	B (80%< substrate protein remaining % ≤100%)	A (0% ≤ substrate protein remaining % ≤80%)	A (0% ≤ substrate protein remaining % ≤80%)	B (80%< substrate protein remaining % ≤100%)	B (80%< substrate protein remaining % ≤100%)	B (80%< substrate protein remaining % ≤100%)
